This is an account of results in patent publication US20210324357A1, “DEGRADATION DOMAIN MODIFICATIONS FOR SPATIO-TEMPORAL CONTROL OF RNA-GUIDED NUCLEASES” (THE BRIGHAM AND WOMEN'S HOSPITAL, INC., priority 2018, published 2021).

“Also recorded” adds a separate entry of the source.

Assay [1] concerns FKBP-Cas9 in U2OS.eGFP-PEST cells. The assay can be described thus: Analysis of Cas9 nuclease activity via genomic eGFP-PEST disruption in U2OS cells. Type of assay: cell-based, human. The following applies: for NtLp 2xFKBP Cas9 activity (% eGFP disruption): increasing amount of degrader 1.4-1000 nM. From the text:
In some embodiments, a quantitative human cell-based reporter assay that enables rapid quantitation of targeted nuclease activities is used to characterize off-target cleavage of Cas9-based RNA guided endonucleases. In this assay, the activities of nucleases targeted to a single integrated EGFP reporter gene can be quantified by assessing loss of fluorescence signal in human U2OS.EGFP cells caused by inactivating frameshift insertion/deletion (indel) mutations introduced by error prone non-homologous end-joining (NHEJ) repair of nuclease-induced double-stranded breaks (DSBs).
In one protocol, U2OS.EGFP cells harboring a single integrated copy of an EGFP-PEST fusion gene are cultured (see e.g., Reyon et al., Nat Biotech 30, 460-465 (2012), which is herein incorporated by reference in its entirety). For transfections, 200,000 cells are nucleofected with gRNA expression plasmid and pJDS246 together with 30 ng of a Td-tomato-encoding plasmid using the SE Cell Line 4D-Nucleofector™ X Kit (Lonza) according to the manufacturer's protocol. Cells are analyzed 2 days post-transfection using a BD LSRII flow cytometer. Transfections for optimizing gRNA/Cas9 plasmid concentration are performed in triplicate and all other transfections are performed in duplicate.
In plasmid delivery, approximately 200,000 U20S.eGFP-PEST cells were nucleofected with 300 ng of Cas9 and sgRNA expression plasmids (NtLp 2xFKBP, NtCt 2xFKBP, LpCt 2xFKBP, and 3xFKBP) using the SE Cell Line 4D-Nucleofector X Kit (Lonza) according to the manufacturer's protocol. Approximately 12,000 transfected cells per well were plated in a 96-well plate (Corning 3904) and incubated with dTAG 47 at 1000 nM, 333 nM, 111 nM, 37 nM, 12 nM, 4 nM, 1.4 nM at 37° C. for 48 hrs. In RNP delivery, 15 pmol pre-formed RNP (Cas9 and NtLp 2xFKBP) were nucleofected and followed the protocol described above. Cells were fixed using 4% paraformaldehyde and HCS NuclearMask Blue Stain. The plate was imaged with IXM ImageXpress Automated High Content Microscope at 4× magnification under two excitation channels (blue and green). Images were analyzed in the MetaXpress software.

Assay [2] concerns NtLp 2xFKBP Cas9 RNP in S2 cells. The assay can be described thus: Analysis of Cas9 nuclease activity in Drosophila S2 cell via genomic eGFP disruption. The format is cell-based. The settings on record: RNP delivery, dTAG-47 1000 nM, 10 nM, 0 nM, 48 hrs. The protocol:
Approximately 200,000 S2 cells were nucleofected with 15 pmol pre-formed Cas9 RNP (NtLp 2xFKBP) using SE Cell Line 4S-Nucleofector X Kit (Lonza). Approximately 70,000 transfected S2 cells per well were plated in 96-well plate and incubated with 1000 nM and 10 nM dTAG 47. After incubation at room temperature for 48 hrs, cells were stained with HCS Nuclear Mask Blue stain, and imaged with IXM ImageXpress Automated Hifh Content Microscope at 4× magnification under two excitation channels (blue and green).

The test system of assay [3] is FKBP-SpCas9 constructs (NtLp 2xFKBP, NtCt 2xFKBP, LpCt 2xFKBP, 3xFKBP) in HEK293FT cells. The assay can be described thus: Western blot analysis of FKBP-SpCas9 degradation. The format is cell-based. The following applies: increasing amount of dTAG-47 (0.04-3.3 uM), 24h, tubulin loading control. The protocol:
HEK293 or NIH3T3 were transfected with pX330 FKBP-Cas9 plasmid using Lipofectamine 2000 or Lipofectamine 3000 to the manufacturer's protocol accordingly. 24 hours after transfection, cells transiently expressing the different constructs (NtLp 2xFKBP, NtCt 2xFKBP, LpCt 2xFKBP, and 3xFKBP) were incubated in either the absence or the presence of dTAG 47 (3.3 uM, 1.1 uM, 0.37 uM, 0.12 uM, 0.042 uM) for 24h before harvesting. Cells were washed with PBS and proceed to lysis in RIPA buffer. The cell suspensions were centrifuged at 16,000 g for 30 min at 4° C. 20 ug of supernatant were electrophoresed on 4-12% Bis-Tris gel with SDS-Tris running buffer. The protein bands were transferred to nitrocellulose membrane at 100V for 1 h and probed with mouse anti-Cas9 antibody (Abcam) and rabbit anti-tubulin as loading control (Abcam). After blocking and incubation with primary antibodies, membranes were incubated with 680-nm or 800-nm fluorophore labeled secondary antibodies. Protein bands were detected using LI-COR Bioisciences Odyssey Imager and analyzed by Image Studeio Lite (LI-COR Biosciences).

`CC[C@H](C(=O)N1CCCC[C@H]1C(=O)O[C@H](CCc1ccc(OC)c(OC)c1)c1ccccc1OCC(=O)NCCCCCCOc1cccc2c1C(=O)N(C1CCC(=O)NC1=O)C2=O)c1cc(OC)c(OC)c(OC)c1` (stereo partly shown) [dTAG-13]: in assay [1] (U2OS cells, RNP delivery, comparison of FIG. 4A and 4B), the “potency in reducing NtLp 2xFKBP Cas9 activity” value is listed as “less potent than dTAG-47”. Also, the “NtLp 2xFKBP Cas9 activity (% eGFP disruption)” value in assay [1] (U2OS cells, RNP delivery) was “reduced but not as significant”. Besides, the “potency in inducing degradation (eGFP disruption assay of 4 FKBP-Cas9)” value in assay [1] (plasmid delivery, comparison of FIG. 3A and 3B) is reported as “less potent than dTAG-47”.

On to `CC[C@H](C(=O)N1CCCC[C@H]1C(=O)O[C@H](CCc1ccc(OC)c(OC)c1)c1ccccc1OCC(=O)NCCCCCCCCNc1ccc2c(c1)C(=O)N(C1CCC(=O)NC1=O)C2=O)c1cc(OC)c(OC)c(OC)c1` (stereo partly shown) [dTAG-47], for which the “eGFP disruption by NtLp 2xFKBP Cas9 RNP” value in assay [2] is “less eGFP disrupted”. Further, the “Cas9 protein detected (degradation of FKBP-SpCas9)” value in assay [3] is reported as “less Cas9 protein was detected; also recorded: less Cas protein was detected”. The “NtLp 2xFKBP Cas9 activity (% eGFP disruption)” value in assay [1] (U2OS cells, RNP delivery) is “reduced significantly”. In addition, in assay [1] (plasmid delivery and RNP delivery (FIGS. 3A-3B, 4A-4B)), the “potency in reducing Cas9 activity” value is given as “more potent in reducing Cas9 activity”.
